The values that follow come from patent US12570612B2, “Substituted nitrogen heterocyclic compound and anesthetic effect thereof” (priority 2019, dated 2026).

Where two headings read alike, the source gives them in different places. Bounds are passed on as bounds.

What all share (assay type): in vivo
The subject of series [1] is Sprague-Dawley rats. The series is described as follows: animal or person. The settings on record: rats; for ED50: LORR, up and down method, tail vein, class symbols. The source says: Evaluating indicator: The end point of anesthesia: LORR was used as the end point of anesthesia; General anesthesia effect: the disappearance of forepaw righting reflex in rats lasting for 30 seconds is taken as the index of general anesthesia effect; Anesthesia recovery index: the recovery of rat forepaw righting reflex was used as the index of anesthesia recovery.

Series [2] concerns Sprague-Dawley rats. Briefly: Pharmacological effect and adverse reactions under the equivalent dose (2ED50), Group C compounds. The following applies: for Righting reflex duration / Sedation duration / Onset time: 2ED50, tail vein, rats, n=8; for Adverse reaction: Convulsions / Adverse reaction: Cough, broken-winded / Adverse reaction: Euphoria / Adverse reaction: Red urine / Adverse reaction: Slower breathing, Tetany convulsion / Adverse reaction: Systemic stiffness, Convulsions, Opisthotonus / Adverse reaction: Tongue stretching / Adverse reaction: Tremor / Adverse reaction: the four limbs rigidity: equivalent dose (2ED50), number of rats of n = 8. An excerpt: Evaluation index: onset time: from the completion of drug injection to the disappearance of forepaw righting reflex in rats; Duration of anesthesia: the time from the disappearance of rat forepaw righting reflex to the recovery of rat forepaw righting reflex; Recovery time of anesthesia: the time from the […] to complete recovery;

Series [3] has as its system Sprague-Dawley rats. The settings on record: tail vein.
Where [4] appears, read: Rattus norvegicus, read-out: ED50.

`COCC(=O)c1cncn1[C@H](C)c1ccccc1` [Compound C33]: the Approximate therapeutic index in the series on Sprague-Dawley rats [1] is reported as greater than 2.8. Moreover, in the series with Sprague-Dawley rats [2], the Righting reflex duration came out at 1.62 ± 0.85 min; the Sedation duration came out at 4.43 ± 0.92 min; the “Adverse reaction: Convulsions” value was 0; the “Adverse reaction: Cough, broken-winded” value was determined as 0. For the same compound, in the series on Sprague-Dawley rats [2], the “Adverse reaction: Euphoria” value came out at 0; the “Adverse reaction: Red urine” value was determined as 8; the “Adverse reaction: Slower breathing, Tetany convulsion” value (“Adverse reaction: Slower breathing” below) is given as 0; the “Adverse reaction: Systemic stiffness, Convulsions, Opisthotonus” value (“Adverse reaction: Systemic stiffness” below) is recorded as 0. Further, in the series with Sprague-Dawley rats [2], the “Adverse reaction: Tongue stretching” value is given as 0, the “Adverse reaction: Tremor” value was 1 and the “Adverse reaction: the four limbs rigidity” value is reported as 0. Further, the Onset time with Sprague-Dawley rats [2] (unit s) is given as less than 30 s. In the series with Sprague-Dawley rats [3], the Minimal lethal dose is given as greater than 14.2 mg/kg.

Consider `CC(=O)COCC(=O)c1cc(F)nn1[C@H](C)c1ccccc1` [Compound C16], for which, in the series with Sprague-Dawley rats [1] (setting [4]), the ED50 lay in the range of 2 to 10 mg/kg. In the series with Sprague-Dawley rats [2], the Righting reflex duration was found to be 2.26 ± 0.81 min; the Sedation duration is recorded as 4.89 ± 0.98 min; the “Adverse reaction: Convulsions” value came out at 0; the “Adverse reaction: Cough, broken-winded” value turned out to be 0. In addition, in the series on Sprague-Dawley rats [2], the “Adverse reaction: Euphoria” value is 0; the “Adverse reaction: Red urine” value turned out to be 8; the “Adverse reaction: Slower breathing” value is 0; the “Adverse reaction: Systemic stiffness” value came to 0. In the series with Sprague-Dawley rats [2], the “Adverse reaction: Tongue stretching” value is given as 1, the “Adverse reaction: Tremor” value turned out to be 2 and the “Adverse reaction: the four limbs rigidity” value was 4. The Onset time with Sprague-Dawley rats [2] (unit s) is less than 30 s. Also, in the series on Sprague-Dawley rats [3], the Minimal lethal dose is listed as greater than 17.0 mg/kg.

Regarding `C[C@H](c1ccccc1)n1cnc(F)c1C(=O)COCC1CC1` [Compound C76], in the series with Sprague-Dawley rats [1], the median effective dose (ED50) result is given as “++ (++ means that the measured ED50 is in the range of 0.50-1.00 mg/kg (excluding 0.50 mg/kg, including 1.00 mg/kg))” and the Approximate therapeutic index was greater than 21.9. Besides, in the series with Sprague-Dawley rats [2], the Righting reflex duration turned out to be 1.72 ± 0.61 min; the Sedation duration was 4.32 ± 0.96 min; the “Adverse reaction: Convulsions” value is recorded as 0; the “Adverse reaction: Cough, broken-winded” value turned out to be 0. Moreover, in the series on Sprague-Dawley rats [2], the “Adverse reaction: Euphoria” value is 0; the “Adverse reaction: Red urine” value amounted to 8; the “Adverse reaction: Slower breathing” value was found to be 0; the “Adverse reaction: Systemic stiffness” value is given as 0. In addition, in the series on Sprague-Dawley rats [2], the “Adverse reaction: Tongue stretching” value was 0, the “Adverse reaction: Tremor” value was found to be 1 and the “Adverse reaction: the four limbs rigidity” value is given as 1. Further, in the series on Sprague-Dawley rats [2] (unit s), the Onset time is listed as less than 30 s. The compound further showed a Minimal lethal dose with Sprague-Dawley rats [3] greater than 15.6 mg/kg.

`CCC(CC)OCC(=O)c1cncn1[C@H](C)c1ccccc1` [Compound C36]: the ED50 with Sprague-Dawley rats [1] (setting [4]) was 2 to 10 mg/kg. Further, the Approximate therapeutic index with Sprague-Dawley rats [1] is given as greater than 3.0. Also, in the series on Sprague-Dawley rats [2], the Righting reflex duration is recorded as 4.02 ± 1.09 min; the Sedation duration stood at 15.57 ± 4.94 min; the “Adverse reaction: Convulsions” value is given as 0; the “Adverse reaction: Cough, broken-winded” value came to 0. Further, in the series with Sprague-Dawley rats [2], the “Adverse reaction: Euphoria” value is 0; the “Adverse reaction: Red urine” value came to 8; the “Adverse reaction: Slower breathing” value came out at 0; the “Adverse reaction: Systemic stiffness” value is given as 0. In the series on Sprague-Dawley rats [2], the “Adverse reaction: Tongue stretching” value was found to be 0, the “Adverse reaction: Tremor” value turned out to be 0 and the “Adverse reaction: the four limbs rigidity” value was determined as 3. In addition, the Onset time with Sprague-Dawley rats [2] (unit s) is less than 30 s. The Minimal lethal dose in the series on Sprague-Dawley rats [3] is on record as greater than 15.2 mg/kg.

As to `CC#CCOCC(=O)c1cc(F)nn1[C@H](C)c1ccccc1` [Compound C14], in the series with Sprague-Dawley rats [1], the ED50 entry is listed as “++++ (++++ indicates that the measured ED50 is in the range of 2.00-10.00 mg/kg (excluding 2.00 mg/kg, including 6.00 mg/kg))” and the Approximate therapeutic index was greater than 6.0. For the same compound, in the series on Sprague-Dawley rats [2], the Righting reflex duration was found to be 1.38 ± 0.47 min; the Sedation duration is recorded as 9.03 ± 1.58 min; the “Adverse reaction: Convulsions” value is on record as 0; the “Adverse reaction: Cough, broken-winded” value was found to be 0. Moreover, in the series with Sprague-Dawley rats [2], the “Adverse reaction: Euphoria” value is 1; the “Adverse reaction: Red urine” value is reported as 8; the “Adverse reaction: Slower breathing” value is reported as 0; the “Adverse reaction: Systemic stiffness” value stood at 0. For the same compound, in the series with Sprague-Dawley rats [2], the “Adverse reaction: Tongue stretching” value is recorded as 0, the “Adverse reaction: Tremor” value is reported as 1 and the “Adverse reaction: the four limbs rigidity” value is 0. Moreover, the Onset time with Sprague-Dawley rats [2] (unit min) was less than 60 s. This compound registered a Minimal lethal dose in the series on Sprague-Dawley rats [3] greater than 14.5 mg/kg.

As for `CCC(CC)OCC(=O)c1c(F)ncn1[C@H](C)c1ccccc1` [Compound C78], the ED50 in the series on Sprague-Dawley rats [1] (setting [4]) fell in the range of 0.5 to 1 mg/kg. For the same compound, the Approximate therapeutic index in the series on Sprague-Dawley rats [1] is recorded as greater than 14.3. In the series on Sprague-Dawley rats [2], the Righting reflex duration is 2.59 ± 0.99 min; the Sedation duration was 7.30 ± 1.85 min; the “Adverse reaction: Convulsions” value was 0; the “Adverse reaction: Cough, broken-winded” value is reported as 0. In the series with Sprague-Dawley rats [2], the “Adverse reaction: Euphoria” value is recorded as 0; the “Adverse reaction: Red urine” value came out at 8; the “Adverse reaction: Slower breathing” value is 0; the “Adverse reaction: Systemic stiffness” value is recorded as 0. Moreover, in the series with Sprague-Dawley rats [2], the “Adverse reaction: Tongue stretching” value was found to be 1, the “Adverse reaction: Tremor” value is listed as 0 and the “Adverse reaction: the four limbs rigidity” value was 1. Further, the Onset time with Sprague-Dawley rats [2] (unit s) is less than 30 s. Besides, the Minimal lethal dose in the series with Sprague-Dawley rats [3] is listed as greater than 11.5 mg/kg.

On to `C[C@H](c1ccccc1)n1cncc1C(=O)COC(C)(C)C` [Compound C45], for which, in the series on Sprague-Dawley rats [1], the Approximate therapeutic index was greater than 2.2. In the series on Sprague-Dawley rats [2], the Righting reflex duration is given as 3.00 ± 1.02 min; the Sedation duration was 7.74 ± 0.85 min; the “Adverse reaction: Convulsions” value is listed as 0; the “Adverse reaction: Cough, broken-winded” value amounted to 0. Further, in the series on Sprague-Dawley rats [2], the “Adverse reaction: Euphoria” value is recorded as 0; the “Adverse reaction: Red urine” value is reported as 8; the “Adverse reaction: Slower breathing” value came to 0; the “Adverse reaction: Systemic stiffness” value came out at 7. Moreover, in the series on Sprague-Dawley rats [2], the “Adverse reaction: Tongue stretching” value was 0, the “Adverse reaction: Tremor” value is listed as 0 and the “Adverse reaction: the four limbs rigidity” value is reported as 1. Besides, in the series on Sprague-Dawley rats [2] (unit s), the Onset time is reported as less than 30 s. In the series on Sprague-Dawley rats [3], this compound showed a Minimal lethal dose greater than 10.8 mg/kg.

As to `CC1OC1C(=O)c1cncn1[C@H](C)c1ccccc1` (stereo partly drawn) [Compound C56], the ED50 with Sprague-Dawley rats [1] (setting [4]) is 2 to 10 mg/kg. Moreover, in the series on Sprague-Dawley rats [1], the Approximate therapeutic index is listed as greater than 16.6. In the series on Sprague-Dawley rats [2], the Righting reflex duration is reported as 1.49 ± 0.62 min; the Sedation duration came to 5.32 ± 1.21 min; the “Adverse reaction: Convulsions” value was determined as 0; the “Adverse reaction: Cough, broken-winded” value was 0. Moreover, in the series with Sprague-Dawley rats [2], the “Adverse reaction: Euphoria” value worked out at 0; the “Adverse reaction: Red urine” value was found to be 8; the “Adverse reaction: Slower breathing” value was 0; the “Adverse reaction: Systemic stiffness” value was 0. For the same compound, in the series on Sprague-Dawley rats [2], the “Adverse reaction: Tongue stretching” value stood at 1, the “Adverse reaction: Tremor” value was determined as 1 and the “Adverse reaction: the four limbs rigidity” value came out at 0. For the same compound, the Onset time with Sprague-Dawley rats [2] (unit min) was less than 60 s. In the series with Sprague-Dawley rats [3], this compound yielded a Minimal lethal dose greater than 13.61 mg/kg.
